System: hsp72
Experiment: hsp72 in skin of UVB exposed human skin grafted SCID mice (immunofluorescence, Western blot)
Assay type: in vivo
Conditions: 5.0 mg/kg i.p.
Description: Human skin tissues were grafted onto immunodeficiency (SCID) mice. The experimental protocol involved a treatment of one group of the mice with N-[2-hydroxy-3-(1-piperidinyl)propoxy]-3-piridinecarboxymidoyl chloride maleate (5.0 mg/kg i.p.) and the other with the solvent NaCl solution (300 μl) for 7 days. On day 8, both groups of mice were exposed to UVB light (100 mJ/cm^2) 24 hours subsequent to the exposure, skin biopsies were taken for histological (sections stained with hematoxylin and eosin), and immunohistological examinations (indirect immunoflourescence technique with monoclonal antibody, mAB).
All steps were carried out at room temperature. Skin (about 9-35 mg) was cut into tiny pieces and homogenized with frosted-glass pestle in Eppendorf tubes for 2 min. in ([…]) of 2 times concentrated Laemmli buffer (65 mM Tris-HCI, pH 6.8: 5% β-mercaptoethanol; 2% SDS; 10% glycerol; 0.1% bromophenolblue; all of these materials were Sigma products). Then samples were solubilized for another 60 min. with continuous shaking. The homogenates were centrifuged at 10.000 rpm for 10 min. prior loading to the gel.
Electrophoresis were carried out on 8% polyacrylamide gel with 10 μl of sample per lane at constant voltage (50 V) for overnight. […]

O=C(O)/C=C\C(=O)O.OC(CON=C(Cl)c1cccnc1)CN1CCCCC1 (centres unmarked) [N-[2-hydroxy-3-(1-piperidinyl)-propoxy]3-pyridinecarboximidoyl chloride maleate]
amount of hsp72 by Western blotting (UVB 100 mJ/cm^2, biopsy after 24 h): increased amount of hsp72 | hsp72 staining by indirect immunofluorescence (UVB 100 mJ/cm^2, biopsy after 24 hours): intense, linear staining along the basement membrane zone
